Laboratory results from ChEMBL document CHEMBL1201862, “PubChem BioAssay data set” (2004).
Each block holds one compound with its values, some of them ahead of it. The source made the active and inactive calls.

Tests used:
[1] = C. albicans growth with fluconazole, confirmation, fluorescence, retest (AID 2467); type: functional, cell-based
[2] = target: T1, Short transient receptor potential channel 4 (Mus musculus, UniProt Q9QUQ5); assay: mouse TRPC4 channel activators, dose response, cell-based, HEK293 TRPC4/mu-opioid, Fluo-4 calcium (AID 434937); type: functional
T1 sequence (Q9QUQ5 whole entry): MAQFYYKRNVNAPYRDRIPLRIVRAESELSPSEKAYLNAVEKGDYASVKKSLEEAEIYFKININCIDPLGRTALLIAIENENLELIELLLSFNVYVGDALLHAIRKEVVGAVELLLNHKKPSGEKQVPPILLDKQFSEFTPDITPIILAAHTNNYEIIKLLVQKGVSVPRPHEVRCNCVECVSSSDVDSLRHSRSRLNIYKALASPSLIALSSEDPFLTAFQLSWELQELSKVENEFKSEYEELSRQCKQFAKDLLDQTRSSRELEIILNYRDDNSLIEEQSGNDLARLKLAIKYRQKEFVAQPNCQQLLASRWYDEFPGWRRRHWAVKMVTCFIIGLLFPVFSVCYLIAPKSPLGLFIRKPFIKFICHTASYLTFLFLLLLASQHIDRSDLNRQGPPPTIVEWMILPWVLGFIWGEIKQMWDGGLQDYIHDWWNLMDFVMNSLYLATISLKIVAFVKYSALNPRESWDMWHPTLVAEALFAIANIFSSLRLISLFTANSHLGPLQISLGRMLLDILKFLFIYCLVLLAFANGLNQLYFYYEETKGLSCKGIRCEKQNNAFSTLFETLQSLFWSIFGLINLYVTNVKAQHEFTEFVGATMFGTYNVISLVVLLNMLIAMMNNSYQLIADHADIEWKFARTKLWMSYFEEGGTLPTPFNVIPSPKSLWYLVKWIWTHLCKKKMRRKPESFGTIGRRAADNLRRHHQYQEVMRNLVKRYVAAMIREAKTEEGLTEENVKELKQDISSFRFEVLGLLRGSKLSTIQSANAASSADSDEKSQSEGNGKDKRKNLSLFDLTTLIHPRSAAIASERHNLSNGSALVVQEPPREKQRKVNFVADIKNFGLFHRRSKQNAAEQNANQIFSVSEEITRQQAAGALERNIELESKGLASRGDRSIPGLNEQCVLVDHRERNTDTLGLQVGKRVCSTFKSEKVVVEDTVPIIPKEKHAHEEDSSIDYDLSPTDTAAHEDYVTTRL

[3] = NIH-3T3 fibroblast cytotoxicity, dose response, cytotoxicity control, cell-based, fluorescence, Alamar Blue, secondary assay (AID 2327); type: functional;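 note: NIH-3T3 mouse fibroblasts cultured with fluconazole at 8 µg/mL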
[4] = target: T1, Short transient receptor potential channel 4; assay: mouse TRPC4 channel inhibitors, dose response, cell-based, HEK293 TRPC4/mu-opioid, Fluo-4 calcium (AID 434942); type: functional;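 note: potency of inhibitors blocking the TRPC4 calcium response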
[5] = inhibitors of intracellular T. cruzi replication, confirmation, NIH3T3 host cells, beta-gal luminescence (AID 2044); type: functional, cell-based;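 note: intracellular parasites grown in NIH/3T3 mouse fibroblasts as host cells; luminescent beta-galactosidase reporter signal from transgenic T. cruzi replicating inside host cells; inhibitors lower the luminescence signal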
[6] = target: T2, Kappa-type opioid receptor (Homo sapiens, UniProt P41145); type: functional
T2 sequence (P41145 whole entry): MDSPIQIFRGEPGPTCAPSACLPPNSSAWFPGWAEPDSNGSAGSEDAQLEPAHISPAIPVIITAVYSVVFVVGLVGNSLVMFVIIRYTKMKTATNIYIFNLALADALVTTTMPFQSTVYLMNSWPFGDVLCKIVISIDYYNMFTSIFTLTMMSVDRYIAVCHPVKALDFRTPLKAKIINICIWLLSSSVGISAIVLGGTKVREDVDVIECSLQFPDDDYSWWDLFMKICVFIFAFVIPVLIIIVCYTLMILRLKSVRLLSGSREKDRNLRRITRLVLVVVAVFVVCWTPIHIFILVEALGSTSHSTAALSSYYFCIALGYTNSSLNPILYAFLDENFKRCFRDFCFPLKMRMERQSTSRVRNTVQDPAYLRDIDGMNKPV

[7] = target: T3, Beta-galactosidase (Escherichia coli, UniProt Q8VNN2); assay: PubChem AID 485352; type: functional
T3 sequence (Q8VNN2 whole entry): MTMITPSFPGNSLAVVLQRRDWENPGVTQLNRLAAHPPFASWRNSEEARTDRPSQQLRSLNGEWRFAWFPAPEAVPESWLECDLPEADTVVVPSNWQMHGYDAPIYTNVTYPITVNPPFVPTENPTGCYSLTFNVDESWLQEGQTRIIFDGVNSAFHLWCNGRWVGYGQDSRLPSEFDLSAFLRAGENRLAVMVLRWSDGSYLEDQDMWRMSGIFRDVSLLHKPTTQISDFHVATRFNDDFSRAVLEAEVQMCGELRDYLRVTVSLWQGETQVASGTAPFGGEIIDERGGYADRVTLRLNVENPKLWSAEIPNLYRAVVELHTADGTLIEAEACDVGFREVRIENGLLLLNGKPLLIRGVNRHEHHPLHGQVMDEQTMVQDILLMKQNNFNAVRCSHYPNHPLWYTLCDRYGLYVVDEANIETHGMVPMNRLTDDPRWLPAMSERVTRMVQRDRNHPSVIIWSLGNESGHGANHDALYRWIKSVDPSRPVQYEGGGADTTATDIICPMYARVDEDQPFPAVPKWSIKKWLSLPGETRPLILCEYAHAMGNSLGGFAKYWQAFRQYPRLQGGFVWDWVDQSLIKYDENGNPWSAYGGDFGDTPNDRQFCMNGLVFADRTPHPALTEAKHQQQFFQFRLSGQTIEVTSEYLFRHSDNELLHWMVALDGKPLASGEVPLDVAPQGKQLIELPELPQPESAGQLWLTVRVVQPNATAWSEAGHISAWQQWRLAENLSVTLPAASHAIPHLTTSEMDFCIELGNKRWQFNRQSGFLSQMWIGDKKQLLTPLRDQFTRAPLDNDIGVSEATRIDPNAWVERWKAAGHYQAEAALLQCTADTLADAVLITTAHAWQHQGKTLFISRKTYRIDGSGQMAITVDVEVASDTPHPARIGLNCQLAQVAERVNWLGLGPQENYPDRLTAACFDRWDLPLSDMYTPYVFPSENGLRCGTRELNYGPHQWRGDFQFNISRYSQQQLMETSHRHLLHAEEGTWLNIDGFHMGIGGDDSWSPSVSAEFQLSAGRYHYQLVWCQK

[8] = target: Mu-type opioid receptor (Homo sapiens, UniProt P35372); assay: HTS Image-Based Screen for Agonists of the MOR Receptor. [Related pubchem assays (depositor defined):AID1777, AID1785, AID1786, AID2133]; type: functional;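 note: imaging of beta-arrestin GFP recruitment into spots after receptor activation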
Chain of Mu-type opioid receptor (P35372 whole entry): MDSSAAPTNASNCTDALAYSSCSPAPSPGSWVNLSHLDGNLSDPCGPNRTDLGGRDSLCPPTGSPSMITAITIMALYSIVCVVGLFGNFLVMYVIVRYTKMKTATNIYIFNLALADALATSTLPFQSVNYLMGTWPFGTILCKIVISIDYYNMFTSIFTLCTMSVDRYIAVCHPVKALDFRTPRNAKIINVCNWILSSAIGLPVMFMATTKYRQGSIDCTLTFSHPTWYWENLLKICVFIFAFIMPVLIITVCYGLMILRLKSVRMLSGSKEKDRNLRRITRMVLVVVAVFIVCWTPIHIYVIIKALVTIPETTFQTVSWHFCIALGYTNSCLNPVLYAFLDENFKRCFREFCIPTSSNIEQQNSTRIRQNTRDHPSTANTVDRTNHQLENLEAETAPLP

[9] = target: T3, Beta-galactosidase; type: functional
[10] = cytotoxicity toward NIH3T3 fibroblasts, dose response, counter-screen, cell-based, ATP luminescence, mouse fibroblasts (AID 2010); type: functional;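 note: cells exposed to compound for about 90 hours before reading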
[11] = target: T2, Kappa-type opioid receptor; type: functional; remark: listed apart in the source
[12] = target: T4, Type-1 angiotensin II receptor (Homo sapiens, UniProt P30556); assay: AT1 receptor antagonists, dose response, selectivity assay for APJ receptor antagonist project, cell-based, uHTS hits (AID 463214); type: functional;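 note: antagonist potency against angiotensin II stimulated AT1 response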
T4 sequence (P30556 whole entry): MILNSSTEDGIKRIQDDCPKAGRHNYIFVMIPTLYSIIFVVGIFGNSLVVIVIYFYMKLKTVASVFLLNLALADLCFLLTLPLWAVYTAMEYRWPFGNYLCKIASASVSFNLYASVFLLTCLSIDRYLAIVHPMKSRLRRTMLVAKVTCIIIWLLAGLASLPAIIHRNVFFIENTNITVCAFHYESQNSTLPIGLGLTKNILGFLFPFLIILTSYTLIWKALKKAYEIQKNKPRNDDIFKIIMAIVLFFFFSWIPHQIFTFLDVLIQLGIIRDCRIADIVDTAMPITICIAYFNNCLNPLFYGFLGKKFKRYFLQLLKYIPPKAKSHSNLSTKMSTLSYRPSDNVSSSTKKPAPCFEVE

[13] = target: T5, Delta-type opioid receptor (Homo sapiens, UniProt P41143); assay: HTS Image-Based Screen for Agonists of the DOR Receptor. [Related pubchem assays (depositor defined):AID1777, AID1786, AID2133]; type: functional
T5 sequence (P41143 whole entry): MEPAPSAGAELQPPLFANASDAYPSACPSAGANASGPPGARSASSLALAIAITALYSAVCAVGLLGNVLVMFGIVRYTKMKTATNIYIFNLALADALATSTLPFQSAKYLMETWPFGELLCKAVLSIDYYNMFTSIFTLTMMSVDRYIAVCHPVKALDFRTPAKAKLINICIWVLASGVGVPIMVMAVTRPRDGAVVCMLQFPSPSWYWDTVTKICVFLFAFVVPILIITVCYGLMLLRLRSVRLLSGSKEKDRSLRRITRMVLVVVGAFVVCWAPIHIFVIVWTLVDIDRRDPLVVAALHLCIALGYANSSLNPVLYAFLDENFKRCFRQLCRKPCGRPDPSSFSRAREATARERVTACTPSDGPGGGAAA

[14] = target: T5, Delta-type opioid receptor; assay: HTS Image-Based Screen for Antagonists of the DOR Receptor. [Related pubchem assays (depositor defined):AID1777, AID1785, AID1786, AID2133]; type: functional
[15] = target: T6, Calpain-2 catalytic subunit (Sus scrofa, UniProt P43367); assay: pig calpain II inhibitor potency, dose response, biochemical, fluorogenic peptide substrate (AID 1420); type: functional
T6 sequence (P43367 whole entry): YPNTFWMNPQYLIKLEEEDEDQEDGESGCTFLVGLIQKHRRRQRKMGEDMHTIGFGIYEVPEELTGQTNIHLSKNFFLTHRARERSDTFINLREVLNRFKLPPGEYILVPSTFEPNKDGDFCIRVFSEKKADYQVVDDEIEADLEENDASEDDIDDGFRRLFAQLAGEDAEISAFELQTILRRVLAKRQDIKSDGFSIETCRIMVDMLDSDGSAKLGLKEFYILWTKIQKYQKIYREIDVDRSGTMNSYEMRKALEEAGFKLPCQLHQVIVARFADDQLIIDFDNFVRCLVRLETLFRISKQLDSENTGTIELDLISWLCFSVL

[16] = target: T7, E3 ubiquitin-protein ligase XIAP (Homo sapiens, UniProt P98170); assay: Counter Screen using XIAP-Bir3 for Chemical Antagonists of Bir1/2 domains of IAP-family anti-apoptotic proteins. [Related pubchem assays (depositor defined):AID1018, AID1449, AID1514, AID1638, AID1749, AID1750, AID488957, AID488963]
T7 sequence (P98170 whole entry): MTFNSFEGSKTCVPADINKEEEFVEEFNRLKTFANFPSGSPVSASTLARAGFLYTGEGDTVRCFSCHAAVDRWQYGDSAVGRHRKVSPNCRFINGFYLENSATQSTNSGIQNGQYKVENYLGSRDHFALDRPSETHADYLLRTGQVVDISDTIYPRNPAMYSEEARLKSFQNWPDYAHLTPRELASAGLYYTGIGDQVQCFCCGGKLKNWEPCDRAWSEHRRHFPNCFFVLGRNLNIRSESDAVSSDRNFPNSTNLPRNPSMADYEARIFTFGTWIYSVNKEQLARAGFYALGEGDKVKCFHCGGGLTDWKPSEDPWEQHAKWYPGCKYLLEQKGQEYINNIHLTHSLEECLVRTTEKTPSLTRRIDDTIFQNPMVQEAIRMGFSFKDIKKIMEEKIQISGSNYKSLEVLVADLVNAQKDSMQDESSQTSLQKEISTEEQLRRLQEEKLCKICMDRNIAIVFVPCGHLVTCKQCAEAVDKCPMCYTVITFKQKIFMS

[17] = target: T7, E3 ubiquitin-protein ligase XIAP; assay: XIAP antagonists, biochemical, IAP family, fluorescence polarization (AID 1018); type: functional
[18] = target: Tumor necrosis factor (Homo sapiens, UniProt P01375); assay: TNFa-triggered NF-kB activation inhibitors, SAR follow-up, cell-based, revised (AID 2337); type: functional
Chain of Tumor necrosis factor (P01375 whole entry): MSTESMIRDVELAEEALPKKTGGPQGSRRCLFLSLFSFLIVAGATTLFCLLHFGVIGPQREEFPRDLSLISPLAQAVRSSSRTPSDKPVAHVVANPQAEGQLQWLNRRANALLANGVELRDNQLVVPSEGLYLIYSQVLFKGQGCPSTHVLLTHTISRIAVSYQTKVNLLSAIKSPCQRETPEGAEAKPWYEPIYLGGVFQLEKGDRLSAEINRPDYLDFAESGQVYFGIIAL

[19] = test system: HEK293; assay: cells; conditions: Homo sapiens;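 note: cells exposed to compound for 14 hours overnight before viability readout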
[20] = target: Nucleotide-binding oligomerization domain-containing protein 1 (Homo sapiens, UniProt Q9Y239); assay: NOD1 signaling inhibitors, SAR follow-up, revised (AID 2333); type: functional
Chain of Nucleotide-binding oligomerization domain-containing protein 1 (Q9Y239 whole entry, the tested form may be a part): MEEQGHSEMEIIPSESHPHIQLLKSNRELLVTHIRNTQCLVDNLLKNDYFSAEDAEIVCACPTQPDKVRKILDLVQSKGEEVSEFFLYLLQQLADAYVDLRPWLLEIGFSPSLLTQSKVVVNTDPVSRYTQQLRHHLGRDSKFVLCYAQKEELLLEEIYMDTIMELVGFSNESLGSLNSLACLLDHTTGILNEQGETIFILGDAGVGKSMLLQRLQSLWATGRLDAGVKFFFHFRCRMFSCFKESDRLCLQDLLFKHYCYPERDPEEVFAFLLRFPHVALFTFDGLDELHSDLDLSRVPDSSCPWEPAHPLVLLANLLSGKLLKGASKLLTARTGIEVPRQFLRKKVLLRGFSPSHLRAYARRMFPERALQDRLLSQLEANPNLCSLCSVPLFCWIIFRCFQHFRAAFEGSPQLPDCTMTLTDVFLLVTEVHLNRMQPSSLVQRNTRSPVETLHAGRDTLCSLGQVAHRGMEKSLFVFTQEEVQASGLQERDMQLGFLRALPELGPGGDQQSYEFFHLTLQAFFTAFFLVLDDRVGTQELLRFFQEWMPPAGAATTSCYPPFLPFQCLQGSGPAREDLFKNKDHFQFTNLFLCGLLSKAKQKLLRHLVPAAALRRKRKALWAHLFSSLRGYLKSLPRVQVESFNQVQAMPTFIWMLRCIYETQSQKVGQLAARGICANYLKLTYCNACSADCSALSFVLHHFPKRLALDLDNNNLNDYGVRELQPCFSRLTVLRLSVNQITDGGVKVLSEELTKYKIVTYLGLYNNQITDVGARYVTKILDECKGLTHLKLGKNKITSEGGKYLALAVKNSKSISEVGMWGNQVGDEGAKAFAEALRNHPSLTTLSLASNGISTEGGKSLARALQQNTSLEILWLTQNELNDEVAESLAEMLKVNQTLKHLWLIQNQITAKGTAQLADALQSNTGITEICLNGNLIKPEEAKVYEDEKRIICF

SMILES: Cc1ccccc1C(=O)NNC(=S)NC(=O)c1ccc(Cl)cc1Cl
EC50 [1]: 1.75 µM (active)
EC50 [2]: 1.33 µM (active)
EC50 [3]: > 160 µM (inactive)

EC50 [4]: 5.31 µM (active)
EC50 [2]: 9.44 µM (active)
SMILES: CCn1c(SCC(=O)c2cc(C)n(CC3CCCO3)c2C)nc2ccccc21 (stereo unspecified)

SMILES: Cc1ccc2oc(Nc3nc(O)cc(-c4ccccc4)n3)nc2c1
EC50 [5]: 1.62 µM (active)
IC50 [6]: > 32 µM
EC50 [7]: > 40 µM (inactive)
EC50 [8]: > 32 µM (inactive)
EC50 [9]: > 31.5 µM (inactive)
EC50 [10]: > 30 µM (not active)
IC50 [11]: 11.9 µM (active)
IC50 [12]: 3.99 µM (active)
EC50 [13]: > 32 µM (inactive)
IC50 [14]: > 32 µM (inactive)

IC50 [15]: > 50 µM (not active)
IC50 [16]: > 100 µM (inactive)
IC50 [17]: > 100 µM (not active)
SMILES: COc1ccc(/C=C(\NC(=O)c2ccccc2Cl)C(=O)NCCCC(=O)O)cc1

SMILES: CCOc1ccc(C(=O)Nc2ccc(CN3CCc4ccccc4C3)cc2)cc1
IC50 [18]: > 20 µM (inactive)
IC50 [19]: > 20 µM (inactive)
IC50 [20]: > 20 µM (inactive)
